Literature values, collected in patent publication US20160361357A1, “STABLE HIGH CONCENTRATION STRONTIUM COMPOUNDS AND FORMULATIONS FOR TOPICAL APPLICATION” (Cosmederm Bioscience, Inc., priority 2015, published 2016).

Experiments:
[1] = tested on: TCN; details: strontium mixed with 70% glycolic acid, pH 0.6 chemical peel
[2] = target: synaptotagmin-1 (Homo sapiens, UniProt P21579); details: strontium substitutes for calcium; response to TCN activation
synaptotagmin-1, sequence (P21579 whole entry, species assumed): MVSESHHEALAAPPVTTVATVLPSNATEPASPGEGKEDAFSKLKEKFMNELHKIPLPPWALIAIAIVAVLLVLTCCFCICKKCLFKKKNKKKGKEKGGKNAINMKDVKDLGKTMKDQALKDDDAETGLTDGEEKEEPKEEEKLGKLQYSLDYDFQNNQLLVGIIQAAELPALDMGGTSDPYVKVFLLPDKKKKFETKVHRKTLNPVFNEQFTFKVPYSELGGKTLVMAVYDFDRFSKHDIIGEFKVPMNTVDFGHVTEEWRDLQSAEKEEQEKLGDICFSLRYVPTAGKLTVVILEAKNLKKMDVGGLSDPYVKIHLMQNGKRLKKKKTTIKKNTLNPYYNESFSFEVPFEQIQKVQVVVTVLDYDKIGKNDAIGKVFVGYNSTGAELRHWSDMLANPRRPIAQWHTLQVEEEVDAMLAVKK

reduction of amplitude of synchronous neurotransmitter release [2]: more than 90%
SMILES: [Sr+2] [strontium]
burning pain and stinging suppressed [1]: ≥ 80%
